test: Cytotoxicity in pre-osteoblasts (unknown origin) assessed as cell death upto 5 uM by CCK8 assay; format: toxicity, cell-based; conditions: pre-osteoblast

| Compound | Activity |
| --- | --- |
| CC[C@H](C)[C@H](NC(=O)[C@H](CCC(=O)O)NC(=O)[C@H](CO)NC(=O)[C@@H](NC(=O)[C@H](CO)NC(C)=O)C(C)C)C(=O)N[C@@H](CCC(N)=O)C(=O)N[C@@H](C)C(=O)N[C@@H](CCSC)C(=O)N[C@@H](Cc1cnc[nH]1)C(=O)N[C@@H](CC(N)=O)C(=O)N[C@@H](CC(C)C)C(=O)NCC(=O)N[C@@H](CCCCN)C(=O)N[C@@H](Cc1cnc[nH]1)C(=O)N[C@@H](CC(C)C)C(=O)N[C@@H](CC(N)=O)C(=O)N[C@@H](CO)C(=O)N[C@@H](CCSC)C(=O)N[C@@H](CCC(=O)O)C(=O)N[C@@H](CCCNC(=N)N)C(=O)N[C@H](C(=O)N[C@@H](CCC(=O)O)C(=O)N[C@@H](Cc1c[nH]c2ccccc12)C(=O)N[C@@H](CC(C)C)C(=O)N[C@@H](CCCNC(=N)N)C(=O)N[C@@H](CCCCN)C(=O)N[C@@H](CCCCN)C(=O)N[C@@H](CC(C)C)C(=O)N[C@@H](CCC(N)=O)C(=O)N[C@@H](CC(=O)O)C(=O)N[C@H](C(=O)N[C@@H](Cc1cnc[nH]1)C(=O)N[C@@H](CC(N)=O)C(=O)N[C@@H](Cc1ccccc1)C(N)=O)C(C)C)C(C)C | Non-Toxic |
| CC[C@H](C)[C@H](NC(=O)[C@H](CCC(=O)O)NC(=O)[C@H](CO)NC(=O)[C@@H](NC(=O)[C@H](CO)NC(C)=O)C(C)C)C(=O)N[C@@H](C)C(=O)N[C@@H](CC(C)C)C(=O)N[C@@H](CCSC)C(=O)N[C@@H](Cc1cnc[nH]1)C(=O)N[C@@H](CC(N)=O)C(=O)N[C@@H](CC(C)C)C(=O)NCC(=O)N[C@@H](CCCCN)C(=O)N[C@@H](Cc1cnc[nH]1)C(=O)N[C@@H](CC(C)C)C(=O)N[C@@H](CC(N)=O)C(=O)N[C@@H](CO)C(=O)N[C@@H](CCSC)C(=O)N[C@@H](CCC(=O)O)C(=O)N[C@@H](CCCNC(=N)N)C(=O)N[C@H](C(=O)N[C@@H](CCC(=O)O)C(=O)N[C@@H](Cc1c[nH]c2ccccc12)C(=O)N[C@@H](CC(C)C)C(=O)N[C@@H](CCCNC(=N)N)C(=O)N[C@@H](CCCCN)C(=O)N[C@@H](CCCCN)C(=O)N[C@@H](CC(C)C)C(=O)N[C@@H](CCC(N)=O)C(=O)N[C@@H](CC(=O)O)C(=O)N[C@H](C(=O)N[C@@H](Cc1cnc[nH]1)C(=O)N[C@@H](CC(N)=O)C(=O)N[C@@H](Cc1ccccc1)C(N)=O)C(C)C)C(C)C | Non-Toxic |
| CC[C@H](C)[C@H](NC(=O)[C@H](CCC(=O)O)NC(=O)[C@H](CO)NC(=O)[C@@H](NC(=O)[C@H](CO)NC(C)=O)C(C)C)C(=O)N[C@@H](CCC(N)=O)C(=O)N[C@@H](CC(C)C)C(=O)N[C@@H](CCSC)C(=O)N[C@@H](Cc1cnc[nH]1)C(=O)N[C@@H](CC(N)=O)C(=O)N[C@@H](CC(C)C)C(=O)NCC(=O)N[C@@H](CCCCN)C(=O)N[C@@H](Cc1cnc[nH]1)C(=O)N[C@@H](CC(C)C)C(=O)N[C@@H](CC(N)=O)C(=O)N[C@@H](CO)C(=O)N[C@@H](CCSC)C(=O)N[C@@H](CCC(=O)O)C(=O)N[C@@H](CCCNC(=N)N)C(=O)N[C@@H](C)C(=O)N[C@@H](CCC(=O)O)C(=O)N[C@@H](Cc1c[nH]c2ccccc12)C(=O)N[C@@H](CC(C)C)C(=O)N[C@@H](CCCNC(=N)N)C(=O)N[C@@H](CCCCN)C(=O)N[C@@H](CCCCN)C(=O)N[C@@H](CC(C)C)C(=O)N[C@@H](CCC(N)=O)C(=O)N[C@@H](CC(=O)O)C(=O)N[C@H](C(=O)N[C@@H](Cc1cnc[nH]1)C(=O)N[C@@H](CC(N)=O)C(=O)N[C@@H](Cc1ccccc1)C(N)=O)C(C)C | Non-Toxic |
| CC[C@H](C)[C@H](NC(=O)[C@H](CCC(=O)O)NC(=O)[C@H](CO)NC(=O)[C@@H](NC(=O)[C@H](CO)NC(C)=O)C(C)C)C(=O)N[C@@H](CCC(N)=O)C(=O)N[C@@H](CC(C)C)C(=O)N[C@@H](CCSC)C(=O)N[C@@H](Cc1cnc[nH]1)C(=O)N[C@@H](CC(N)=O)C(=O)N[C@@H](CC(C)C)C(=O)NCC(=O)N[C@@H](CCCCN)C(=O)N[C@@H](Cc1cnc[nH]1)C(=O)N[C@@H](CC(C)C)C(=O)N[C@@H](CC(N)=O)C(=O)N[C@@H](CO)C(=O)N[C@@H](CCSC)C(=O)N[C@@H](CCC(=O)O)C(=O)N[C@@H](CCCNC(=N)N)C(=O)N[C@H](C(=O)N[C@@H](CCC(=O)O)C(=O)N[C@@H](Cc1c[nH]c2ccccc12)C(=O)N[C@@H](CC(C)C)C(=O)N[C@@H](CCCNC(=N)N)C(=O)N[C@@H](CCCCN)C(=O)N[C@@H](CCCCN)C(=O)N[C@@H](CC(C)C)C(=O)N[C@@H](CCC(N)=O)C(=O)N[C@@H](CC(=O)O)C(=O)N[C@H](C(=O)N[C@@H](Cc1cnc[nH]1)C(=O)N[C@@H](CC(N)=O)C(=O)N[C@@H](C)C(N)=O)C(C)C)C(C)C | Non-Toxic |
| CC[C@H](C)[C@H](NC(=O)[C@H](CCC(=O)O)NC(=O)[C@H](CO)NC(=O)[C@@H](NC(=O)[C@H](CO)NC(C)=O)C(C)C)C(=O)N[C@@H](CCC(N)=O)C(=O)N[C@@H](CC(C)C)C(=O)N[C@@H](C)C(=O)N[C@@H](Cc1cnc[nH]1)C(=O)N[C@@H](CC(N)=O)C(=O)N[C@@H](CC(C)C)C(=O)NCC(=O)N[C@@H](CCCCN)C(=O)N[C@@H](Cc1cnc[nH]1)C(=O)N[C@@H](CC(C)C)C(=O)N[C@@H](CC(N)=O)C(=O)N[C@@H](CO)C(=O)N[C@@H](CCSC)C(=O)N[C@@H](CCC(=O)O)C(=O)N[C@@H](CCCNC(=N)N)C(=O)N[C@H](C(=O)N[C@@H](CCC(=O)O)C(=O)N[C@@H](Cc1c[nH]c2ccccc12)C(=O)N[C@@H](CC(C)C)C(=O)N[C@@H](CCCNC(=N)N)C(=O)N[C@@H](CCCCN)C(=O)N[C@@H](CCCCN)C(=O)N[C@@H](CC(C)C)C(=O)N[C@@H](CCC(N)=O)C(=O)N[C@@H](CC(=O)O)C(=O)N[C@H](C(=O)N[C@@H](Cc1cnc[nH]1)C(=O)N[C@@H](CC(N)=O)C(=O)N[C@@H](Cc1ccccc1)C(N)=O)C(C)C)C(C)C | Non-Toxic |
| CC[C@H](C)[C@H](NC(=O)[C@H](CCC(=O)O)NC(=O)[C@H](CO)NC(=O)[C@@H](NC(=O)[C@H](CO)NC(C)=O)C(C)C)C(=O)N[C@@H](CCC(N)=O)C(=O)N[C@@H](CC(C)C)C(=O)N[C@@H](CCSC)C(=O)N[C@@H](Cc1cnc[nH]1)C(=O)N[C@@H](C)C(=O)N[C@@H](CC(C)C)C(=O)NCC(=O)N[C@@H](CCCCN)C(=O)N[C@@H](Cc1cnc[nH]1)C(=O)N[C@@H](CC(C)C)C(=O)N[C@@H](CC(N)=O)C(=O)N[C@@H](CO)C(=O)N[C@@H](CCSC)C(=O)N[C@@H](CCC(=O)O)C(=O)N[C@@H](CCCNC(=N)N)C(=O)N[C@H](C(=O)N[C@@H](CCC(=O)O)C(=O)N[C@@H](Cc1c[nH]c2ccccc12)C(=O)N[C@@H](CC(C)C)C(=O)N[C@@H](CCCNC(=N)N)C(=O)N[C@@H](CCCCN)C(=O)N[C@@H](CCCCN)C(=O)N[C@@H](CC(C)C)C(=O)N[C@@H](CCC(N)=O)C(=O)N[C@@H](CC(=O)O)C(=O)N[C@H](C(=O)N[C@@H](Cc1cnc[nH]1)C(=O)N[C@@H](CC(N)=O)C(=O)N[C@@H](Cc1ccccc1)C(N)=O)C(C)C)C(C)C | Non-Toxic |
| CSCC[C@H](NC(=O)[C@H](CC(C)C)NC(=O)[C@H](CCC(N)=O)NC(=O)[C@H](C)NC(=O)[C@H](CCC(=O)O)NC(=O)[C@H](CO)NC(=O)[C@@H](NC(=O)[C@H](CO)NC(C)=O)C(C)C)C(=O)N[C@@H](Cc1cnc[nH]1)C(=O)N[C@@H](CC(N)=O)C(=O)N[C@@H](CC(C)C)C(=O)NCC(=O)N[C@@H](CCCCN)C(=O)N[C@@H](Cc1cnc[nH]1)C(=O)N[C@@H](CC(C)C)C(=O)N[C@@H](CC(N)=O)C(=O)N[C@@H](CO)C(=O)N[C@@H](CCSC)C(=O)N[C@@H](CCC(=O)O)C(=O)N[C@@H](CCCNC(=N)N)C(=O)N[C@H](C(=O)N[C@@H](CCC(=O)O)C(=O)N[C@@H](Cc1c[nH]c2ccccc12)C(=O)N[C@@H](CC(C)C)C(=O)N[C@@H](CCCNC(=N)N)C(=O)N[C@@H](CCCCN)C(=O)N[C@@H](CCCCN)C(=O)N[C@@H](CC(C)C)C(=O)N[C@@H](CCC(N)=O)C(=O)N[C@@H](CC(=O)O)C(=O)N[C@H](C(=O)N[C@@H](Cc1cnc[nH]1)C(=O)N[C@@H](CC(N)=O)C(=O)N[C@@H](Cc1ccccc1)C(N)=O)C(C)C)C(C)C | Non-Toxic |
| CC[C@H](C)[C@H](NC(=O)[C@H](CCC(=O)O)NC(=O)[C@H](CO)NC(=O)[C@@H](NC(=O)[C@H](CO)NC(C)=O)C(C)C)C(=O)N[C@@H](CCC(N)=O)C(=O)N[C@@H](CC(C)C)C(=O)N[C@@H](CCSC)C(=O)N[C@@H](Cc1cnc[nH]1)C(=O)N[C@@H](CC(N)=O)C(=O)N[C@@H](CC(C)C)C(=O)NCC(=O)N[C@@H](CCCCN)C(=O)N[C@@H](Cc1cnc[nH]1)C(=O)N[C@@H](CC(C)C)C(=O)N[C@@H](CC(N)=O)C(=O)N[C@@H](CO)C(=O)N[C@@H](CCSC)C(=O)N[C@@H](CCC(=O)O)C(=O)N[C@@H](CCCNC(=N)N)C(=O)N[C@H](C(=O)N[C@@H](CCC(=O)O)C(=O)N[C@@H](Cc1c[nH]c2ccccc12)C(=O)N[C@@H](C)C(=O)N[C@@H](CCCNC(=N)N)C(=O)N[C@@H](CCCCN)C(=O)N[C@@H](CCCCN)C(=O)N[C@@H](CC(C)C)C(=O)N[C@@H](CCC(N)=O)C(=O)N[C@@H](CC(=O)O)C(=O)N[C@H](C(=O)N[C@@H](Cc1cnc[nH]1)C(=O)N[C@@H](CC(N)=O)C(=O)N[C@@H](Cc1ccccc1)C(N)=O)C(C)C)C(C)C | Non-Toxic |
| CC[C@H](C)[C@H](NC(=O)[C@H](CCC(=O)O)NC(=O)[C@H](CO)NC(=O)[C@@H](NC(=O)[C@H](CO)NC(C)=O)C(C)C)C(=O)N[C@@H](CCC(N)=O)C(=O)N[C@@H](CC(C)C)C(=O)N[C@@H](CCSC)C(=O)N[C@@H](Cc1cnc[nH]1)C(=O)N[C@@H](CC(N)=O)C(=O)N[C@@H](CC(C)C)C(=O)NCC(=O)N[C@@H](CCCCN)C(=O)N[C@@H](Cc1cnc[nH]1)C(=O)N[C@@H](CC(C)C)C(=O)N[C@@H](CC(N)=O)C(=O)N[C@@H](CO)C(=O)N[C@@H](CCSC)C(=O)N[C@@H](CCC(=O)O)C(=O)N[C@@H](C)C(=O)N[C@H](C(=O)N[C@@H](CCC(=O)O)C(=O)N[C@@H](Cc1c[nH]c2ccccc12)C(=O)N[C@@H](CC(C)C)C(=O)N[C@@H](CCCNC(=N)N)C(=O)N[C@@H](CCCCN)C(=O)N[C@@H](CCCCN)C(=O)N[C@@H](CC(C)C)C(=O)N[C@@H](CCC(N)=O)C(=O)N[C@@H](CC(=O)O)C(=O)N[C@H](C(=O)N[C@@H](Cc1cnc[nH]1)C(=O)N[C@@H](CC(N)=O)C(=O)N[C@@H](Cc1ccccc1)C(N)=O)C(C)C)C(C)C | Non-Toxic |

Reference: ChEMBL document CHEMBL5625277, “Systematical mutational analysis of teriparatide on anti-osteoporosis activity by alanine scanning” (Bioorg Med Chem Lett, 2024)
